In US8058242B2, “Chimeric proteins with natriuretic activity” (The University of Queensland, priority 2004, dated 2011):

Key:
[1] = system: endothelium-denuded aortic rings (GC-A mediated); assay: Aortic ring relaxation, endothelium-denuded rings pre-contracted with 40 mM KCl (Example 3); design: species or system rat; details: for competitive inhibition of the binding of TNPc: endothelium-denuded aortic rings, TNPa or TNPb followed by TNPc 0.1 μM; for percentage relaxation of the precontraction by KCl: endothelium-denuded rat aortas pre-contracted with 40 mM KCl, peptide 0.1 μM
Method: (§1) Male Sprague Dawley rats were killed and the descending thoracic aorta rapidly removed and flushed with physiological solution. After being cleared of adhering fat and connective tissue, 5 mm rings were mounted under 10 g resting tension, between two stainless steel hooks, in organ baths (37° C.) containing carbogenated (95% O2 and 5% CO2) physiological salt solution of the following composition (mM): NaCl, 118.4; NaHCO3, 25; glucose, 11; KCl, 4.7; MgSO4, 1.2; KH2PO4, 1.2 and CaCl2, 2.5. The lower hook was attached to a tissue holder and the upper hook to a force displacement transducer (Grass FTO3). Where indicated endothelial cells were removed by gentle rubbing of the intimal surface with a wire. To confirm the presence or absence of endothelial cells, tissues were precontracted with a sub-maximal concentration of phenylephrine (0.3 μM) and the response to acetylcholine (ACh, 10 μM) observed. Ach-induced relaxation greater than 80% of maximum indicated the presence of endothelium; whereas Ach-induced relaxation less than 10% indicated the absence of endothelium. Ring preparations under resting tension were conditioned by two contraction/relaxation cycles with 40 mM KCl, contracted by a third application of 40 mM KCl and then relaxed with different doses of the venom peptides. Responses were expressed as a percentage relaxation of the precontraction by KCl.

[2] = system: endothelium-intact aortic rings (NPR-C mediated); assay: Aortic ring relaxation, endothelium-intact rings pre-contracted with 40 mM KCl (Example 3); design: species or system rat; details: for competitive inhibition of the binding of TNPc: endothelium-intact aortic rings, TNPa or TNPb followed by TNPc 0.1 μM; for percentage relaxation of the precontraction by KCl: endothelium-intact rat aortas pre-contracted with 40 mM KCl, peptide 0.1 μM
Method: as §1

rat GC-A = target: T1, rat GC-A (Rattus norvegicus, UniProt P18910); assay: Cell cyclic GMP elevations in HEK-293 cells stably expressing rat GC-A (Example 4); format: cell-based; details: 0.1 μM; 293 cells over-expressing GC-A
T1 construct: expressed in transfected cells
T1 sequence (P18910 29-1057): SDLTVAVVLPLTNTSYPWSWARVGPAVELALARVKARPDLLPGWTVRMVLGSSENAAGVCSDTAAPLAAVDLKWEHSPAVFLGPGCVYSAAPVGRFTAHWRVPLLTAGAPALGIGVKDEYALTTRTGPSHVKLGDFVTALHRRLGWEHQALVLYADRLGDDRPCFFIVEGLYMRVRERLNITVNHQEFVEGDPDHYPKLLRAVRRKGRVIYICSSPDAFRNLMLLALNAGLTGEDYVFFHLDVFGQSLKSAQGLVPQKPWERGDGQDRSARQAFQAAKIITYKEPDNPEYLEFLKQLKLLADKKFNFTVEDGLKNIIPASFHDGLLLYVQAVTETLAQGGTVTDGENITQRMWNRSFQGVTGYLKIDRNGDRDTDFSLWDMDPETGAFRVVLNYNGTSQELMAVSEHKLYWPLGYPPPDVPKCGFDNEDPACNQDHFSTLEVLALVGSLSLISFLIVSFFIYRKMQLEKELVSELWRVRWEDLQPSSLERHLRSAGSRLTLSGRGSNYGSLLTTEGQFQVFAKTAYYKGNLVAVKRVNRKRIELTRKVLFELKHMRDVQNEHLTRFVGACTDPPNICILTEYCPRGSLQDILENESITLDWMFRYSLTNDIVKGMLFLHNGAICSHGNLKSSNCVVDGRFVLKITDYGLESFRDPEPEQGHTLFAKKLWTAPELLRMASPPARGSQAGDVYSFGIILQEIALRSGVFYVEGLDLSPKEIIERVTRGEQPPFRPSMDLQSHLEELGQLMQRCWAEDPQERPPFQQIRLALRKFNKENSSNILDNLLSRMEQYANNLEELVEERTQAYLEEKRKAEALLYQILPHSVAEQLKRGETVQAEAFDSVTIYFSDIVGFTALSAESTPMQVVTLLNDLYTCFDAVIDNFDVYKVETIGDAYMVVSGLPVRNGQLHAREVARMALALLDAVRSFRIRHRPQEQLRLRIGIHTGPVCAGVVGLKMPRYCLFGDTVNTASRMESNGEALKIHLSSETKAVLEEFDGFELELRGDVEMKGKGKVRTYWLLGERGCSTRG
Description: The human embryonic kidney 293 (HEK-293) cell line was used for the stable expression of rat GC-A (GC-A/293). Cells expressing rat GC-A (GC-A/293) in the HEK-293 cell line were as previously described (Potter L. R., and Garbers D. L., (1992), J Biol Chem. 26, 14531-4) and determination of cGMP elevations was undertaken as previously described (Chrisman et al. T. D., Schulz, S., Potter, L. R. and Garbers, D. L., (1993,) J. Biol. Chem. (1993) 268 (5), 3698-3703). Responses were expressed as a percentage of the effect produced by ANP.

conscious rabbits = assay: Blood pressure and heart rate in conscious rabbits, intravenous infusion dose-response (Example 8); details: for Recovery (MAP) / Recovery Delta SED (MAP): after 1 hour recovery period; for Recovery (MAP) / Recovery Delta SED (MAP) / MAP at final dose / Treatment Effect, change of mean blood pressure during the infusion: Table 10A; for MAP at final dose / Treatment Effect, change of mean blood pressure during the infusion: highest dose; for Treatment Effect, change of mean blood pressure during the infusion: groups 1, 2A and 3; for Diastolic BP, mean difference from control / HR, mean difference from control / Mean BP, mean difference from control / Systolic BP, mean difference from control: 45 min
[3] = average of the 3 doses 1.0, 2.0, 4.0 μg/kg/min

Row | Sequence | competitive inhibition of the binding of TNPc [1] | percentage relaxation of the precontraction by KCl [1] | competitive inhibition of the binding of TNPc [2] | percentage relaxation of the precontraction by KCl [2] | cGMP elevations, percentage of the effect produced by ANP (rat GC-A) | Recovery (MAP) (conscious rabbits) [mm Hg] | Recovery Delta SED (MAP) (conscious rabbits) [mm Hg] | Diastolic BP, Average Response SED (conscious rabbits; [3]) [mmHg] | Mean BP (MAP), Average Response SED (conscious rabbits; [3]) [mmHg] | Systolic BP, Average Response SED (conscious rabbits; [3]) [mmHg] | MAP at final dose (conscious rabbits) [mm Hg] | Treatment Effect, change of mean blood pressure during the infusion (conscious rabbits) [mm Hg] | Diastolic BP, mean difference from control (conscious rabbits; i.v. infusion 1.0 μg/kg/min) [mmHg] | HR, mean difference from control (conscious rabbits; i.v. infusion 1.0 μg/kg/min) [bpm] | Mean BP, mean difference from control (conscious rabbits; i.v. infusion 1.0 μg/kg/min) [mmHg] | Systolic BP, mean difference from control (conscious rabbits; i.v. infusion 1.0 μg/kg/min) [mmHg] | Diastolic BP, mean difference from control (conscious rabbits; i.v. infusion 2.0 μg/kg/min) [mmHg] | HR, mean difference from control (conscious rabbits; i.v. infusion 2.0 μg/kg/min) [bpm] | Mean BP, mean difference from control (conscious rabbits; i.v. infusion 2.0 μg/kg/min) [mmHg] | Systolic BP, mean difference from control (conscious rabbits; i.v. infusion 2.0 μg/kg/min) [mmHg] | further results
1 | SDSKIGDGCFGLPLDHIGSVSGLGCNRPVQNRPKK (A portion of a natriuretic peptide) [TNPa] | lack the ability to competitively inhibit the binding of TNPc | no relaxation | lack the ability to competitively inhibit the binding of TNPc | approximately 20% | lesser effects on cGMP elevations | 65.3 | 3.0 ± 2.9 | −7.9 ± 0.9 | −8.7 ± 1.1 | −5.7 ± 1.3 | 62.3 | −11.6 | −6.0 | −16.1 | −6.4 | −2.8 | −7.7 | −15.9 | −8.0 | −4.9 | Diastolic BP, mean difference from control (conscious rabbits; i.v. infusion 4.0 μg/kg/min): −9.9 mmHg; HR, mean difference from control (conscious rabbits; i.v. infusion 4.0 μg/kg/min): −9.8 bpm; Mean BP, mean difference from control (conscious rabbits; i.v. infusion 4.0 μg/kg/min): −11.6 mmHg; Systolic BP, mean difference from control (conscious rabbits; i.v. infusion 4.0 μg/kg/min): −9.4 mmHg
2 | SDPKIGDGCFGLPLDHIGSVSGLGCNRPVQNRPKK (A portion of a natriuretic peptide) [TNPb] | lack the ability to competitively inhibit the binding of TNPc | no relaxation | lack the ability to competitively inhibit the binding of TNPc | approximately 20% | lesser effects on cGMP elevations | 68.2 | 3.5 ± 2.3 | −7.8 ± 0.9 | −9.6 ± 1.1 | −8.9 ± 1.4 | 64.7 | −11.0 | −7.0 | −3.9 | −8.0 | −7.9 | −7.9 | −5.1 | −9.8 | −8.8 | HR, Average Response SED (conscious rabbits; [3]): −1.4 ± 3.5 bpm; Diastolic BP, mean difference from control (conscious rabbits; i.v. infusion 4.0 μg/kg/min): −8.6 mmHg; HR, mean difference from control (conscious rabbits; i.v. infusion 4.0 μg/kg/min): 4.7 bpm; Mean BP, mean difference from control (conscious rabbits; i.v. infusion 4.0 μg/kg/min): −11.0 mmHg; Systolic BP, mean difference from control (conscious rabbits; i.v. infusion 4.0 μg/kg/min): −10.0 mmHg
